Assay results taken from paper PMC6153520, “Proteasome inhibition and mechanism of resistance to a synthetic, library-based hexapeptide” (Investigational New Drugs, 2018).
Where a SMILES comes first, the peptide text is derived from it. [ ]: non-standard residue; d: D form. The star is where a group is joined. His(τ-Bzl) = N[C@@H](Cc1cn(Cc2ccccc2)cn1)C(=O)O; Nle = CCCC[C@H](N)C(=O)O; NHBn = c1ccc(CN*)cc1; Bn = c1ccc(C*)cc1; OtBu = CC(C)(C)O*; tBu = CC(C)(C)*

Assays:
THP1/WT cells [1] = assay: Apoptosis assay (Annexin-V/7-AAD flow cytometry); assay type: cell-based, human; conditions: 24 h exposure
Procedure: (§1) Induction of apoptosis was analyzed by flow cytometry using APOPTEST™-FITC A700 (VPS Diagnostics, Hoeven, the Netherlands) according to the instructions of the manufacturer. In short, induction of apoptosis was determined after 24 h’ drug exposure. One million cells were harvested and washed 3 times with ice-cold PBS. The cell pellet was incubated for 30 min with 7-Amino-actinomycin D (7-AAD) on ice followed by incubation with Annexin-V according to the instructions of the manufacturer. Annexin-V (early apoptosis) and 7-AAD (late apoptosis) staining was measured by flow cytometry (Beckton & Dickinson, FACScalibur) and analysed using FCSexpress V3 software (Denovo software, Thornhill, Canada).

THP1/BTZ200 cells = assay: Apoptosis assay (Annexin-V/7-AAD flow cytometry); assay type: cell-based, human; conditions: 24 h, 4A6 over 0–25 μM
Procedure: as §1

[2] = test system: bortezomib-resistant THP1 cell lines; assay: Growth inhibition assay, cross-resistance; assay type: cell-based, human; conditions: relative to THP1/WT; 72 h growth inhibition
Procedure: (§2) Human monocytic/macrophage THP1 cells (ATTC, Manassas, USA) were cultured in RPMI-1640 medium supplemented with 5% fetal calf serum, 20 mM HEPES, 2 mM glutamine and 100 μg/ml penicillin/ streptomycin at 5% CO2 and 37 °C. Cell cultures were seeded at a density of 3 × 10^5 cells/ml and refreshed twice weekly. […] Some specific experiments also included THP1/BTZ100 cells that were cultured in the absence of BTZ for 6 months (further designated as THP1/BTZ (−100) cells). Mouse thymoma EL4 and human multiple myeloma H929 cells were cultured in RPMI-1640 medium supplemented with 8% fetal calf serum and 100 μg/ml penicillin/streptomycin at 5% CO2 and 37 °C.
(§3) Evaluation of drug sensitivity was carried out as described before. Cells were seeded at an initial density of 1.25 × 10^5 cells/ml in individual wells of a 24-well plate containing up to 50 μl of drug solutions. Inhibition of cell growth was determined after 72 h of incubation at 37 °C by determining the number of viable cells […] using trypan blue exclusion. The drug concentration required to inhibit cell growth by 50% compared to untreated controls was defined as the IC50.

THP1 cells = assay: Growth inhibition with or without Ruthenium Red; assay type: cell-based, human; conditions: 72 h, with or without 25 μM Ruthenium Red
Procedure: as §3

THP1/WT cells [3] = assay: Western blot, accumulation of ubiquitinated proteins; assay type: cell-based, human; conditions: 24 h exposure
Procedure: (§4) Western blot analysis to determine protein levels of (i) β1, β2 and β5 proteasome subunits and (ii) the accumulation of ubiquitinated proteins after treatment with 4A6 was performed essentially as described previously. Cells were harvested in the mid-log phase of growth and washed 3 times with ice-cold buffered saline pH 7.4. Total cell lysates of 5 × 10^6 cells were prepared by resuspension in 500 μl lysis buffer containing: 50 mM Tris-HCl (pH 7.6), 5 mM dithiotreitol, 20 μl PIC (Protease Inhibitor Cocktail; 1 tablet/ml H2O), 20% glycerol and 0.5% NP-40. The suspension was sonicated (MSE sonicator, amplitude 7, for 3 × 5 s with 20 s time intervals at 4 °C) and centrifuged in an Eppendorf micro centrifuge (5 min, 12,000 rpm, 4 °C). Protein content of the supernatant was determined by the Bio-Rad protein assay. 20–30 μg of total cell lysates were fractionated on a 10% polyacrylamide gel containing SDS and transferred onto a PVDF membrane. The membranes were pre-incubated overnight at 4 °C in blocking buffer (5% Bio-Rad Blocker in TBS-T; 10 mM Tris-HCl, pH 8.0, 0.15 M NaCl, 0.1% Tween-20) to prevent non-specific antibody binding. After blocking, the membranes were incubated for 1 h at room temperature with primary antibodies for proteasome subunit β1 (1:1000, PW8140), β2 (1:1000, PW8145) and β5 (1:1000, PW8895) or ubiquitin (1:1000, Santa-Cruz, SC-8017). An antibody to α-tubulin was used (1:1000, Santa Cruz, sc-8035) to check and normalize for any loading differences. After 3 washing steps with TBS-T, the membranes were incubated for 1 h with HRP-labelled donkey-anti-rabbit (1:6000, Amersham, UK) or goat-anti-mouse (1:6000, Dako, Glostrup, Denmark) as secondary antibody. Detection of antibody binding was followed by chemoluminescence using Supersignal (Pierce Biotechnology, Rockford, USA) according to the manufacturers’ instructions. […] The signal intensity was determined densitometrically using Quantity One software (Bio-Rad) and was expressed relative to the intensity of the α-tubulin signal.

[4] = test system: bortezomib-resistant cells (THP1/BTZ200); assay: as above; assay type: cell-based, human; conditions: 24 h, same concentrations as in THP1/WT
Procedure: as §4

THP1/WT = assay type: cell-based, human
Procedure: as §2, §3

THP1/BTZ (−100) cells = assay type: cell-based, human; conditions: 72 h
Procedure: as §2, §3

THP1/BTZ100 = assay type: cell-based, human; conditions: 72 h
Procedure: as §2, §3

proteasome β5 subunit = biological target: T1, proteasome β5 subunit (Mus musculus, UniProt O55234); assay: Proteasome affinity labelling in EL4 cells; assay type: cell-based; conditions: EL4 cells pre-exposed for 2–24 h
T1 construct: Activity probing of constitutive and immunoproteasome β-subunits in EL4 cells; endogenous in cells; host or cells: EL4 mouse thymoma cells
Procedure: Proteasome activity profiling assays were performed as described using a close analog of the BodipyFL probe. Briefly, mouse EL4 thymoma cells were incubated at 37 °C for 2 or 24 h with increasing concentrations of 4A6, followed by a 1 h chase with 500 nM probe. […] Cells were harvested and lysed for 30 min in NP40 lysis buffer (50 mM Tris, pH 7.4, 150 mM NaCl, 1% NP40) at 4°C. The Bradford assay was used to measure protein content. Proteins were denatured by boiling in reducing sample buffer and analyzed by 12% SDS-PAGE using NuPAGE pre-cast gels (Invitrogen). Gels were then scanned for fluorescence emission using a ProXPRESS 2D Proteomic imaging system (Perkin Elmer). Images were analyzed using Totallab analysis software (Nonlinear Dynamics, Newcastle upon Tyne, UK). Sypro staining served as a loading control.

THP1/BTZ50 = assay: Growth inhibition assay (72 h, trypan blue); assay type: cell-based, human; conditions: relative to IC50 in THP1/WT
Procedure: as §2, §3

THP1/BTZ200 = assay: Growth inhibition assay (72 h, trypan blue); assay type: cell-based, human; conditions: relative to IC50 in THP1/WT
Procedure: as §2, §3

[5] = biological target: T2, chymotrypsin-like proteasome activity (Homo sapiens, UniProt P28074); assay: Proteasome-Glo cell-based assay in intact THP1 cells
T2 construct: chymotrypsin-like proteasome activity in intact THP1 cells after 1 h exposure; endogenous in cells; host or cells: THP1 (wild type)

IC50 (THP1/WT; 72 h): 260 ± 60 nM | IC50 (THP1/BTZ (−100) cells): 10 µM | IC50 (THP1/BTZ100): > 25 µM | concentration giving complete inhibition of the β5 subunit (proteasome β5 subunit): > 5 µM | potency fold lower than BTZ, chymotrypsin-like proteasome activity [5]: 28 fold
Structure (SMILES): CCCC[C@H](NC(=O)[C@@H](NC(=O)[C@H](Cc1cn(Cc2ccccc2)cn1)NC(=O)[C@@H](NC(C)=O)[C@@H](C)OC(C)(C)C)[C@@H](C)OCc1ccccc1)C(=O)N[C@@H](CCC(=O)OC(C)(C)C)C(=O)NCC(=O)NCc1ccccc1 [4A6, Ac-Thr(tBu)-His(Bzl)-Thr(Bzl)-Nle-Glu(OtBu)-Gly-Bza] (Ac-T(tBu)[His(τ-Bzl)]T(Bn)[Nle]E(OtBu)G-NHBn)
induction of apoptosis (THP1/WT cells [1]): efficient induction of apoptosis | induction of apoptosis (THP1/BTZ200 cells): none | cross-resistance of bortezomib-resistant cell lines [2]: up to 287 fold | effect of Ruthenium Red on growth inhibitory activity (protection) (THP1 cells): no effect | accumulation of ubiquitinated proteins (THP1/WT cells [3]): marked accumulation of ubiquitinated proteins | accumulation of ubiquitinated proteins [4]: did not provoke any accumulation of ubiquitinated proteins | [Resistance Factor] THP1/WT (THP1/WT; reference value in square brackets): 1 | [Resistance Factor] THP1/BTZ100 (THP1/BTZ100; relative to IC50 in THP1/WT): 117 | [Resistance Factor] THP1/BTZ50 (THP1/BTZ50): 44 | [Resistance Factor] THP1/BTZ200 (THP1/BTZ200): 287
